Source: patent US11596639B2, “Substituted indole Mcl-1 inhibitors” (Vanderbilt University, priority 2016, dated 2023)
Where two headings read alike, the source gives them in different places.

Assays:
Mcl-1 = Mcl-1 (Homo sapiens (Human), UniProt Q07820); assay: TR-FRET binding assay, FITC-Bak peptide and MBP-tagged Mcl-1; details: read-out: Ki for Inhibition of Mcl-1 by TR-FRET assay
Protocol: Compounds are diluted in DMSO in a 16-point, semilog serial dilution scheme. […] The plate was mixed and incubated for 3 hours at room temperature. […] TR-FRET signal is plotted and IC50 and Ki values are calculated in the same manner as the fluorescence polarization anisotropy based competition assays.

[1] = tested on: H929 human cancer cell lines; assay: Cellular viability / proliferation (Cell TiterGlo, 72 h); assay type: cell-based
Method in brief: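 Top dose 50 μM, serially diluted 2-fold, applied one day after seeding (1,000 cells/well, 10% FBS), DMSO below 1%.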

[2] = Homo sapiens, NCI-H929, 72 h, read-out: GI50 on cellular proliferation of H929 human cancer cell lines, H929 cells, 72 h, Cell TiterGlo, 10% FBS

Sequence of Mcl-1 (Q07820 172-327): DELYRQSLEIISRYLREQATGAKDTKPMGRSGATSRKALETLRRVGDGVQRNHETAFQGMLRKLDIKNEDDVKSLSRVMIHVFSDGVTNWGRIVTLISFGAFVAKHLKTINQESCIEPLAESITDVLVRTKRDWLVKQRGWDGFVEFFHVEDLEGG

Cc1cc(OCCCc2c3n(c4c(-c5c(C)nn(C)c5C)c(Cl)ccc24)[C@H](C)CN(c2cn(Cc4ccc(F)c(F)c4)c4ccc(C(=O)O)cc24)C3=O)cc(C)c1Cl [Example 645, (R)-3-(7-chloro-10-(3-(4-chloro-3,5-dimethylphenoxy)propyl)-4-methyl-1-oxo-6-(1,3,5-trimethyl-1H-pyrazol-4-yl)-3,4-dihydropyrazino[1,2-a]indol-2(1H)-yl)-1-(3,4-difluorobenzyl)-1H-indole-5-carboxylic acid]
Ki (Mcl-1): 3.3 nM | GI50 [1, 2]: 3700 nM

Cc1cc(OCCCc2c3n(c4c(-c5c(C)nn(C)c5C)c(Cl)ccc24)[C@H](C)CN(c2cn(CCN4CCCC4)c4ccc(C(=O)O)cc24)C3=O)cc(C)c1Cl [Example 511, (R)-3-(7-Chloro-10-(3-(4-chloro-3,5-dimethylphenoxy)propyl)-4-methyl-1-oxo-6-(1,3,5-trimethyl-1H-pyrazol-4-yl)-3,4-dihydropyrazino[1,2-a]indol-2(1H)-yl)-1-(2-(pyrrolidin-1-yl)ethyl)-1H-indole-5-carboxylic acid]
Ki (Mcl-1): < 0.2 nM | GI50 [1, 2]: 300 nM

COCCOCCOc1cc(N2C[C@@H](C)n3c(c(CCCOc4cc(C)c(Cl)c(C)c4)c4ccc(Cl)c(-c5c(C)nn(C)c5C)c43)C2=O)c2c(c1)cc(C(=O)O)n2C [Example 633, (R)-7-(7-chloro-10-(3-(4-chloro-3,5-dimethylphenoxy)propyl)-4-methyl-1-oxo-6-(1,3,5-trimethyl-1H-pyrazol-4-yl)-3,4-dihydropyrazino[1,2-a]indol-2(1H)-yl)-5-(2-(2-methoxyethoxy)ethoxy)-1-methyl-1H-indole-2-carboxylic acid]
Ki (Mcl-1): < 0.2 nM | GI50 ([1]; H929 cells, 72 h, Cell TiterGlo, 10% FBS, read-out: GI50 on cellular proliferation of H929 human cancer cell lines): < 200 nM

Cc1cc(OCCCc2c3n(c4c(-c5c(C)nn(C)c5C)c(Cl)ccc24)[C@H](C)CN(c2cc(OCc4cccnc4)cc4cc(C(=O)O)n(C)c24)C3=O)cc(C)c1Cl [Example 487, (R)-7-(7-Chloro-10-(3-(4-chloro-3,5-dimethylphenoxy)propyl)-4-methyl-1-oxo-6-(1,3,5-trimethyl-1H-pyrazol-4-yl)-3,4-dihydropyrazino[1,2-a]indol-2(1H)-yl)-1-methyl-5-(pyridin-3-ylmethoxy)-1H-indole-2-carboxylic acid]
Ki (Mcl-1): 0.23 nM | GI50 [1, 2]: 280 nM

Cc1cc(OCCCc2c3n(c4c(-c5c(C)nn(C)c5C)c(Cl)ccc24)[C@H](C)CN(c2cccc4c(C(=O)O)ccnc24)C3=O)cc(C)c1Cl [Example 661, (R)-8-(7-chloro-10-(3-(4-chloro-3,5-dimethylphenoxy)propyl)-4-methyl-1-oxo-6-(1,3,5-trimethyl-1H-pyrazol-4-yl)-3,4-dihydropyrazino[1,2-a]indol-2(1H)-yl)quinoline-4-carboxylic acid]
Ki (Mcl-1): 0.23 nM | GI50 [1, 2]: 2400 nM

Cc1cc(OCCCc2c3n(c4c(-c5c(C)nn(C)c5C)c(Cl)ccc24)[C@H](C)CN(c2cccc4cc(C(=O)O)n(Cc5ccncn5)c24)C3=O)cc(C)c1Cl [Example 518, (R)-7-(7-chloro-10-(3-(4-chloro-3,5-dimethylphenoxy)propyl)-4-methyl-1-oxo-6-(1,3,5-trimethyl-1H-pyrazol-4-yl)-3,4-dihydropyrazino[1,2-a]indol-2(1H)-yl)-1-(pyrimidin-4-ylmethyl)-1H-indole-2-carboxylic acid]
Ki (Mcl-1): < 0.2 nM | GI50 [1, 2]: 810 nM

Cc1cc(OCCCc2c3n(c4c(-c5c(C)nn(C)c5C)c(Cl)ccc24)[C@H](C)CN(c2cn(CC(=O)N(C)C)c4ccc(-c5ncn(Cc6ccccn6)n5)cc24)C3=O)cc(C)c1Cl [Example 638, (R)-2-(3-(7-Chloro-10-(3-(4-chloro-3,5-dimethylphenoxy)propyl)-4-methyl-1-oxo-6-(1,3,5-trimethyl-1H-pyrazol-4-yl)-3,4-dihydropyrazino[1,2-a]indol-2(1H)-yl)-5-(1-(pyridin-2-ylmethyl)-1H-1,2,4-triazol-3-yl)-1H-indol-1-yl)-N,N-dimethylacetamide]
Ki (Mcl-1): 1.7 nM | GI50 [1, 2]: 600 nM

Cc1cc(OCCCc2c3n(c4c(-c5c(C)nn(C)c5C)c(Cl)ccc24)[C@H](C)CN(c2cn(CC(=O)N4CCN(C)CC4)c4ccc(-c5ncn(C)n5)cc24)C3=O)cc(C)c1Cl [Example 546, (R)-7-Chloro-10-(3-(4-chloro-3,5-dimethylphenoxy)propyl)-4-methyl-2-(5-(1-methyl-1H-1,2,4-triazol-3-yl)-1-(2-(4-methylpiperazin-1-yl)-2-oxoethyl)-1H-indol-3-yl)-6-(1,3,5-trimethyl-1H-pyrazol-4-yl)-3,4-dihydropyrazino[1,2-a]indol-1(2H)-one]
Ki (Mcl-1): 0.38 nM | GI50 [1, 2]: 420 nM

Cc1cc(OCCCc2c3n(c4c(-c5c(C)nn(C)c5C)c(Cl)ccc24)[C@H](C)CN(c2cn(CCN4CCN(C)CC4)c4ccc(-c5ncn(C)n5)cc24)C3=O)cc(C)c1Cl [Example 526, (R)-7-Chloro-10-(3-(4-chloro-3,5-dimethylphenoxy)propyl)-4-methyl-2-(5-(1-methyl-1H-1,2,4-triazol-3-yl)-1-(2-(4-methylpiperazin-1-yl)ethyl)-1H-indol-3-yl)-6-(1,3,5-trimethyl-1H-pyrazol-4-yl)-3,4-dihydropyrazino[1,2-a]indol-1(2H)-one]
Ki (Mcl-1): < 0.2 nM | GI50 [1, 2]: < 200 nM

Cc1ccnc(Cn2cc(C(=O)O)c3cccc(N4C[C@@H](C)n5c(c(CCCOc6cc(C)c(Cl)c(C)c6)c6ccc(Cl)c(-c7c(C)nn(C)c7C)c65)C4=O)c32)c1 [Example 484, (R)-7-(7-Chloro-10-(3-(4-chloro-3,5-dimethylphenoxy)propyl)-4-methyl-1-oxo-6-(1,3,5-trimethyl-1H-pyrazol-4-yl)-3,4-dihydropyrazino[1,2-a]indol-2(1H)-yl)-1-((4-methylpyridin-2-yl)methyl)-1H-indole-3-carboxylic acid]
Ki (Mcl-1): < 0.2 nM | GI50 ([1]; read-out: GI50 on cellular proliferation of H929 human cancer cell lines, H929 cells, 72 h, Cell TiterGlo, 10% FBS): 310 nM

Cc1cc(N2C[C@@H](C)n3c(c(CCCOc4cc(C)c(Cl)c(C)c4)c4ccc(Cl)c(-c5c(C)nn(C)c5C)c43)C2=O)c2c(c1)cc(C(=O)O)n2CC(=O)N(C)C [Example 596, (R)-7-(7-chloro-10-(3-(4-chloro-3,5-dimethylphenoxy)propyl)-4-methyl-1-oxo-6-(1,3,5-trimethyl-1H-pyrazol-4-yl)-3,4-dihydropyrazino[1,2-a]indol-2(1H)-yl)-1-(2-(dimethylamino)-2-oxoethyl)-5-methyl-1H-indole-2-carboxylic acid]
Ki (Mcl-1): < 0.2 nM | GI50 [1, 2]: 1300 nM

COCCn1cc(N2C[C@@H](C)n3c(c(CCCOc4cc(C)c(Cl)c(C)c4)c4ccc(Cl)c(-c5c(C)nn(C)c5C)c43)C2=O)c2cc(-c3ncn(CC4CCOCC4)n3)ccc21 [Example 624, (R)-7-Chloro-10-(3-(4-chloro-3,5-dimethylphenoxy)propyl)-2-(1-(2-methoxyethyl)-5-(1-((tetrahydro-2H-pyran-4-yl)methyl)-1H-1,2,4-triazol-3-yl)-1H-indol-3-yl)-4-methyl-6-(1,3,5-trimethyl-1H-pyrazol-4-yl)-3,4-dihydropyrazino[1,2-a]indol-1(2H)-one]
Ki (Mcl-1): 9.6 nM | GI50 [1, 2]: 430 nM

CCOCCn1c(C(=O)O)cc2cc(C)cc(N3C[C@@H](C)n4c(c(CCCOc5cc(C)c(Cl)c(C)c5)c5ccc(Cl)c(-c6c(C)nn(C)c6C)c54)C3=O)c21 [Example 579, (R)-7-(7-chloro-10-(3-(4-chloro-3,5-dimethylphenoxy)propyl)-4-methyl-1-oxo-6-(1,3,5-trimethyl-1H-pyrazol-4-yl)-3,4-dihydropyrazino[1,2-a]indol-2(1H)-yl)-1-(2-ethoxyethyl)-5-methyl-1H-indole-2-carboxylic acid]
Ki (Mcl-1): < 0.2 nM | GI50 [1, 2]: 240 nM

Cc1cc(OCCCc2c3n(c4c(-c5c(C)nn(C)c5C)c(Cl)ccc24)[C@H](C)CN(c2cn(CC(=O)N4CCOCC4)c4ccc(-c5ncccn5)cc24)C3=O)cc(C)c1Cl [Example 531, (R)-7-Chloro-10-(3-(4-chloro-3,5-dimethylphenoxy)propyl)-4-methyl-2-(1-(2-morpholino-2-oxoethyl)-5-(pyrimidin-2-yl)-1H-indol-3-yl)-6-(1,3,5-trimethyl-1H-pyrazol-4-yl)-3,4-dihydropyrazino[1,2-a]indol-1(2H)-one]
Ki (Mcl-1): 0.48 nM | GI50 [1, 2]: 380 nM

Cc1cccc(Cn2cnc(-c3ccc4c(c3)c(N3C[C@@H](C)n5c(c(CCCOc6cc(C)c(Cl)c(C)c6)c6ccc(Cl)c(-c7c(C)nn(C)c7C)c65)C3=O)cn4CC(=O)N(C)C)n2)n1 [Example 639, (R)-2-(3-(7-Chloro-10-(3-(4-chloro-3,5-dimethylphenoxy)propyl)-4-methyl-1-oxo-6-(1,3,5-trimethyl-1H-pyrazol-4-yl)-3,4-dihydropyrazino[1,2-a]indol-2(1H)-yl)-5-(1-((6-methylpyridin-2-yl)methyl)-1H-1,2,4-triazol-3-yl)-1H-indol-1-yl)-N,N-dimethylacetamide]
Ki (Mcl-1): 4.2 nM | GI50 [1, 2]: 900 nM

COCCOC1CCN(Cc2cc(N3C[C@@H](C)n4c(c(CCCOc5cc(C)c(Cl)c(C)c5)c5ccc(Cl)c(-c6c(C)nn(C)c6C)c54)C3=O)c3c(c2)cc(C(=O)O)n3C)CC1 [Example 650, (R)-7-(7-chloro-10-(3-(4-chloro-3,5-dimethylphenoxy)propyl)-4-methyl-1-oxo-6-(1,3,5-trimethyl-1H-pyrazol-4-yl)-3,4-dihydropyrazino[1,2-a]indol-2(1H)-yl)-5-((4-(2-methoxyethoxy)piperidin-1-yl)methyl)-1-methyl-1H-indole-2-carboxylic acid]
Ki (Mcl-1): < 0.2 nM | GI50 [1, 2]: 210 nM
